# US7951370B2, “Anti-TYRP1 antibodies” (ImClone LLC, priority 2008, dated 2011)
# Assays:
# [1] = test system: TYRP1 (+) human 624mel cells; test: Antibody dependent cellular cytotoxicity (ADCC) against human melanoma in vitro; type: cell-based; settings: 624mel cells in vitro
# Method: Collect and wash 624mel cells with a suitable media, such as AIM V media (Invitrogen Life Technologies) and plate the cells at a density of 10,000 cells /well in a 100 μL volume, in a 96-well Falcon U bottom plate. Add antibodies at 5 μg/mL in a 50 μL volume and incubate at 37° C. for 0.5 hr with target cells. Effector cells were added in a volume of 50 μL at various E:T (effector:target) ratios. Plates were further incubated for 4 hrs at 37° C. After incubation, plates were spun down at 800 g, and 100 μL of supernatants were gently transferred to 96 well flat bottom plates. Lactate dehydrogenase assay reagent was added as specified by the manufacturer (Roche) and plates were read at 490 nm. Controls in assay: Target Spontaneous and Target Maximum (by adding 50 μL of 4% triton).
# Lysis is dependent on the effector to target concentration with lysis of 50% of target cells occurring at an E:T ratio of 100:1.
# [2] = test system: TYRP1 (+) human 624mel cells; test: Complement dependent cytotoxicity (CDC) assay; type: cell-based; settings: for induction of CDC (in words): 624mel cells in vitro; for Human CDC (%): Table 4 summary, 624mel cells
# Method: Wash human melanoma cell line 624mel 3 times and bring to a concentration of 10^6 viable cells/mL in a suitable media, such as AIM V Media (Invitrogen Life Technologies). […] Add low-Tox-M Rabbit complement (Cedarlane Labs, Westbury, N.Y.) diluted 1:5 in AIM V at 50 μl/well and incubate for 1 hr at 37° C. Count cells for viability with Trypan Blue (Invitrogen Life Technologies).
# human SKmel23 cells = test: SKmel23 metastatic melanoma model (lung surface nodules); type: in vivo, nude mice; settings: for reduced metastasis (percent inhibition of lung nodules): SKmel23 i.v., day 20
# Method: (§1) For the following subcutaneous studies, tumor volumes are calculated by the formula [π/6(W1×W2×W2)], where W1 represents the largest tumor diameter and W2 represents the smallest tumor diameter. % T/C=100×(Treatment Volume/Initial Volume)/(Control Volume/Initial Volume). Statistical analysis is done using traditional p-value techniques. For the subcutaneous studies the p value is calculated based on the tumor volume of animals receiving the anti-TYPR antibody verses the tumor volume of the control animals. […] Statistical analysis is done using traditional p-value techniques. For the metastatic studies the p-value is calculated based on the nodules observed in the animals receiving the anti-TYPR antibody verses the nodules observed in the control animals.
# (§2) B16BL6 is an aggressive and spontaneously arising murine melanoma. It forms lung metastases in nude mice after intravenous administration. Harvest, wash and resuspend cultured SKmel23 and B16BL6 cells melanoma cells in RPMI 1640 media (10% FBS heat inactivated).
# (§3) Model 2: Inject 1×10^5 human SKmel23 cells intravenously. On the second day after the tumor injection, administer to mice anti-TYRP1 antibodies or control human IgG, according to two different dose concentrations (200 μg/mouse and 500 μg/mouse). Sacrifice mice on day 20, remove lungs, count lung surface nodules and calculate percent inhibition.
# (§4) For the subcutaneous model, harvest, wash and resuspend cultured 624mel cells, in a 50/50 solution of Matrigel and RPMI 1640 media (10% FBS heat inactivated). Inject 2×10^6 624mel cells into the left flank of nude mice. When tumors reach 200 mm^3, treat mice with anti-TYRP1 antibodies, DTIC, or a combination of anti-TYRP1 antibodies and DTIC. Administer 40 mg/kg antibodies once per week. Administer DTIC 5 mg/kg once per week. Measure tumors with calipers twice a week and calculate % T/C. For metastatic model, harvest, wash and resuspend cultured SKmel23, 888mel and B16 melanoma cells, in RPMI 1640 media (10% FBS heat inactivated). Inject SKmel23, 888mel and B16 melanoma cells intravenously. On the second day after the tumor injection, administer to mice anti-TYRP1 antibodies or control human IgG. Sacrifice mice on day 20, remove lungs, count lung surface nodules and calculate percent inhibition.
# Human FcR = Human FcR binding; settings: Table 4 summary
# SKmel28 xenografts = test: SKmel28 subcutaneous xenograft model; type: in vivo, nude mice
# Method: as §1
# (§5) Harvest, wash and resuspend 624mel cultured cells in a 50/50 solution of Matrigel and RPMI 1640 media (10% FBS heat inactivated). For the subcutaneous tumor model, inject 2×10^6 cells subcutaneously into the left flank of nude mice. When tumors reach 200 mm^3, treat mice with anti-TYRP1 antibodies or control human IgG; administer antibodies 1 mg/mouse three times per week. Measure tumors with calipers twice a week and calculate % T/C. […] Tumor growth was inhibited and reached statistical significance at day 16 post initiation of antibody treatment (T/C=44%; P=0.01). […] Lysates of skins from different species are incubated with TA99 (5 μg/ml) for 2 hours at room temperature. The lysates are then precipitated with protein A and subjected to SDS-PAGE under reducing and non-reducing conditions using […]. After electrophoresis, the gels are transferred to PVDF membrane (Invitrogen Life Technologies). […] The blot is developed using a chemiluminescent substrate (KPL, Gaithersburg, Md.).
# Mix Skmel28 cells in a 50/50 solution of Matrigel and RPMI 1640 media (10% FBS heat inactivated). Inject 2×10^6 cells subcutaneously into the left flank of nude mice. When tumors reach 200 mm^3, treat mice with anti-TYRP1 antibodies (6 mg/kg, 20 mg/kg, or 60 mg/kg) or control human IgG three times per week. Measure tumors with calipers twice a week and calculate % T/C. […] The anti-tumor effects at each dose were statistically significant: […] (T/C=50%; P=0.04), […] (T/C=19%; P<0.003).
# 888mel cells = test: 888mel metastatic melanoma model (lung surface nodules); type: in vivo, nude mice
# Method: as §1
# For the metastatic model, harvest, wash and resuspend 888mel cultured cells in RPMI 1640 media (10% FBS heat inactivated), inject 888mel cells intravenously. On the second day after the tumor injection, administer to mice anti-TYRP1 antibodies or control human IgG. Sacrifice mice on day 20, remove lungs, count lung surface nodules and calculate percent inhibition.
# For the subcutaneous model, harvest, wash and resuspend cultured 624mel cells, in a 50/50 solution of Matrigel and RPMI 1640 media (10% FBS heat inactivated). Inject 2×10^6 624mel cells into the left flank of nude mice. […]
# 624mel xenograft = test: 624mel subcutaneous xenograft model; type: in vivo, nude mice
# Method: as §1, §5
# For the subcutaneous tumor model, harvest, wash and resuspend 624mel cultured cells in a 50/50 solution of Matrigel and RPMI 1640 media (10% FBS heat inactivated), then inject 2×10^6 624mel cells subcutaneously into the left flank of nude mice. […] Measure tumors with calipers twice a week and calculate % T/C. […]
# B16BL6 murine melanoma = test: B16BL6 metastatic melanoma model (lung surface nodules); type: in vivo, nude mice; settings: for Inhibition of lung metastases: B16BL6 i.v., day 20
# Method: as §1, §2
# as §3, with “1:” for “2:”, “B16BL6” for “human SKmel23”, “three” for “two”, “μg/mouse, 500 μg/mouse,” for “μg/mouse”, “1 mg/mouse).” for “500 μg/mouse).”
# as §4
substance,measurement,setting,value
CTA99: chimeric anti-TYRP1 antibody with TA99 variable regions and human constant region IgG1; SEQ ID NO 31 and 33,induction of ADCC (in words),[1],induce ADCC
same,induction of CDC (in words),[2],induce CDC
same,Human CDC (%),[2],94%
same,CDC percentage of cytotoxicity,[2]; antibody concentration 0.05 μg/mL,9.5%
same,CDC percentage of cytotoxicity,[2]; antibody concentration 0.41 μg/mL,53%
same,CDC percentage of cytotoxicity,[2]; antibody concentration 1.23 μg/mL,54%
same,CDC percentage of cytotoxicity,[2]; antibody concentration 3.7 μg/mL,95%
same,reduced metastasis (percent inhibition of lung nodules),human SKmel23 cells; 200 μg/dose,63%
same,reduced metastasis (percent inhibition of lung nodules),human SKmel23 cells; 500 μg/dose,75%
"20D7: recombinant human monoclonal antibody, full length IgG1κ targeting TYRP1; heavy chain SEQ ID NO 29, light chain SEQ ID NO 32 [Antibody 20D7]",induction of ADCC (in words),[1],induce ADCC
same,Human FcR binding,Human FcR,110 pM
same,induction of CDC (in words),[2],induce CDC
same,Human CDC (%),[2],100%
same,complement-mediated cell lysis (in words),[2]; antibody concentration of 3.7 μg/mL,complete cell lysis
same,T/C,"SKmel28 xenografts; SKmel28 dose response, 6 mg/kg three times per week",69%
same,T/C,"SKmel28 xenografts; SKmel28 dose response, printed as 6 mg/kg and 20 mg/kg, three times per week",50%
same,T/C,"SKmel28 xenografts; SKmel28 dose response, printed as 6 mg/kg and 60 mg/kg, three times per week",19%
same,T/C,"SKmel28 xenografts; SKmel28 xenografts, vs human IgG control, day 43",51%
same,inhibition of lung surface metastasis,"888mel cells; 888mel i.v. in nude mice, day 20",77%
same,% inhibition,"888mel cells; Table 9, Metastatic, 888 mel",77%
same,T/C,"624mel xenograft; 624mel subcutaneous xenograft, 40 mg/kg twice per week",21%
same,% T/C,"624mel xenograft; Table 9, Subcutaneous, 624mel, antibody 40 mg/kg once per week, DTIC 5 mg/kg once per week",50%
same,T/C,"624mel xenograft; established 624mel tumors, 1 mg/mouse three times per week, day 16 post initiation of antibody treatment",44%
same,reduced metastasis (percent inhibition of lung nodules),human SKmel23 cells; 200 μg/dose,58%
same,reduced metastasis (percent inhibition of lung nodules),human SKmel23 cells; 500 μg/dose,73%
same,% inhibition,"human SKmel23 cells; Table 9, Metastatic, SKmel23",80%
same,Inhibition of lung metastases,B16BL6 murine melanoma; 200 μg/mouse,65%
same,Inhibition of lung metastases,B16BL6 murine melanoma; 500 μg/mouse,74%
same,Inhibition of lung metastases,B16BL6 murine melanoma; 1 mg/mouse,95%
same,% inhibition,"B16BL6 murine melanoma; Table 9, Metastatic, B16",95%
